Assay results from paper PMC4856767 (Cell Research, 2016).
“Also recorded” adds a separate entry of the source. No end group written: not given here.

Experiments:
[1] = system: PXL1^LRR; experiment: In vitro GST pull-down, PXL1^LRR; type: binding, Arabidopsis; details: GS4B resin, wash 10 mM Bis-Tris pH 6.0, 100 mM NaCl; SDS-PAGE, Coomassie blue; Figure 1A
[2] = system: PXL2^LRR; experiment: In vitro GST pull-down, PXL2^LRR; type: binding, Arabidopsis; details: GS4B resin, wash 10 mM Bis-Tris pH 6.0, 100 mM NaCl; SDS-PAGE, Coomassie blue; Figure 1A
[3] = biological target: T1, extracellular LRR domain of PXY (PXY^LRR, residues 1-647) (Arabidopsis, UniProt Q9FII5 30-647); experiment: ITC
T1 sequence: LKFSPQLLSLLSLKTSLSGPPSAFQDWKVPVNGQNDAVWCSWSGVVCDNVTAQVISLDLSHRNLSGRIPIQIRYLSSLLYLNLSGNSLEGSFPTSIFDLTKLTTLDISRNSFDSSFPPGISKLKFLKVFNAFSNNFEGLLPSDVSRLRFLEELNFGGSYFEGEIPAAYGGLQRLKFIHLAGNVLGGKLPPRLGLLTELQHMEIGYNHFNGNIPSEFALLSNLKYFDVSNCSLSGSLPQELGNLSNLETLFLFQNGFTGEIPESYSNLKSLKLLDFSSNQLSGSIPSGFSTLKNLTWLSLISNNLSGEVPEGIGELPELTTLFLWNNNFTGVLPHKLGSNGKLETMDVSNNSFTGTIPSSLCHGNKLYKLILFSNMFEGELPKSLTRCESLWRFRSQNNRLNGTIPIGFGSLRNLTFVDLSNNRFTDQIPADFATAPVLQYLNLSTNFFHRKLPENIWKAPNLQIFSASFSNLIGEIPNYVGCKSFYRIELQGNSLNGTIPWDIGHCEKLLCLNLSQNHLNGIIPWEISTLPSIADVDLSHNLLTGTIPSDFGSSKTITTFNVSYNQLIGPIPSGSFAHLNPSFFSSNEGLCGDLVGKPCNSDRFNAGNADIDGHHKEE

[4] = biological target: T1, extracellular LRR domain of PXY …; experiment: pull-down

With “GST-TDIF: GST tagged-TDIF protein expressed in E. coli strain BL21 (DE3) (HEVPSGPNPISN; also: GST tag, end not given here)” the “interaction with PXL1^LRR in pull-down” value [1] was “can pull-down; also recorded: much lower affinities” and the “interaction with PXL2^LRR in pull-down” value [2] was “can pull-down; also recorded: much lower affinities”.

REVPSGPNPISN [synthetic mutant peptide TDIF^H1R] showed a Kd [3] of ~68 nM.

HEVPSGPNPISN [recombinant GST-TDIF]: binds [4].
